Earlier results as cited in patent US20090265114A1, “Influenza virus neuraminidase crystal structure and their use thereof” (priority 2006, published 2009).

What was measured:
[1] = tested on: Group-2 NAs with His-274->Tyr
[2] = tested on: Group-1 enzymes with Arg-292->Lys; settings: Group-1 enzymes compared with Group-2 NAs
[3] = tested on: Group-1 NAs with His-274->Tyr

## CCOC(=O)C1=C[C@@H](OC(CC)CC)[C@H](NC(C)=O)[C@@H](N)C1 [oseltamivir]
[1]
  effect of the mutation His-274->Tyr on resistance against oseltamivir: little effect
[2]
  effect of the mutation Arg-292->Lys on oseltamivir resistance: smaller effect
[3]
  resistance against oseltamivir caused by the mutation His-274->Tyr: high resistance
